Earlier results as cited in patent US20210169807A1, “PHARMACEUTICAL COMPOSITION COMPRISING AN ATYPICAL ANTIPSYCHOTIC AGENT AND METHOD FOR THE PREPARATION THEREOF” (priority 2018, published 2021).
Like-named read-outs stand apart in the source and are kept apart here.

Cc1nc2n(c(=O)c1CCN1CCC(c3noc4cc(F)ccc34)CC1)CCCC2O (stereo not drawn) [Paliperidone, 3-[2-[4-(6-fluoro-1,2-benzisoxazol-3-yl)-1-piperidinyl]ethyl]-6,7,8,9-tetrahydro-9-hydroxy-2-methyl-4H-pyrido[1,2-a]pyrimidin-4-one]
solubility (in 0.1N HCl): slightly soluble | solubility (in dichloromethane): sparingly soluble | solubility (in water): insoluble
